What was measured:
CTL clone RDR173 [1] = test: IFN-γ ELISA: recognition of peptide-pulsed donor-derived EBV-LCL cells by CTL clone RDR173; format: cell-based, human; details: peptide pulsed on donor-derived EBV-LCL cells 2 h 37° C., coculture 24 h
Description: FIG. 5. CTL clone RDR173 recognizes the minimal epitope RPHAIRRPLAL. (a) Overlapping 9-, 10- and 11-mer peptides (1 μg/ml) were pulsed on donor-derived EBV-LCL cells for 2 h at 37° C. Peptide-pulsed EBV-LCLs were cocultured with CTL clone RDR173 for 24 h. Release of IFN-γ in the supernatant was measured by ELISA. (b) Increasing concentrations of the patient-derived peptide RPHAIRRPLAL (filled symbols) and the donor-derived peptide RPRAIRRPLAL (open symbols) were pulsed on donor-derived EBV-LCL cells for 2 h at 37° C. Peptide-pulsed EBV-LCLs were cocultured with CTL clone RDR173 for 24 h. Release of IFN-γ in the supernatant was measured by ELISA.
EBV-LCL cells were seeded at 3×10^4 cells/well together with 5×10^3 T cells in 96-well round bottom plate. For blocking studies, target cells were preincubated with antibodies against HLA class I (w6/32), HLA class II (PdV5.2) or HLA-B/C alleles (B1.23.2) for 30 min at room temperature. After 24 h incubation at 37° C., release of IFN-γ in the supernatant was measured using standard ELISA (Sanguin, Amsterdam, the Netherlands).

CTL clone RDR173 [2] = test: IFN-γ ELISA: recognition by CTL clone RDR173 of target cells pulsed with long peptide (processing and presentation); format: cell-based, human
Description: FIG. 7. Pulsing target cells with the 23-mer peptide leads to efficient processing and presentation LB-ECGF-1H epitope. CD 14+ cells were pulsed with titrated concentrations of the 11- and 23-mer hECGF-1 peptide for 4 h at 37° C. Target cells (3×10^4) were incubated with CTL clone RDR173 (10^4) for 24 h at 37° C. Release of IFN-γ in the supernatant was measured by ELISA.
FIG. 8. The LB-ECGF-1H epitope can be processed and presented by various target cells upon pulsing with the 23-mer peptide. HLA-B7-positive EBV-LCL cells (EBV), peripheral blood lymphocytes (PBL), phytohemagglutinin activated T cells (PHA blasts), CD14^+ cells (CD14) and CD19^+ cells (CD19) were pulsed with titrated concentrations of the 23-mer HECGF-1 peptide for 4 h at 37° C. Target cells (3×10^4) were incubated with CTL clone RDR173 (10^4) for 24 h at 37° C. Release of IFN-γ in the supernatant was measured by ELISA.
The 23-mer peptide […] containing the epitope (depicted in bold) was synthesized. Target cells were pulsed with titrated concentration of the long peptide for 4 hours at 37° C. and tested for recognition by CTL clone RDR173.

Sequence	Recognition by CTL clone RDR173 (IFN-γ release) (CTL clone RDR173 [1])	Recognition by CTL clone RDR173 (IFN-γ release) after pulsing with long peptide (CTL clone RDR173 [2]; CD14+ cells pulsed 4 h at 37° C., titrated concentrations, FIG. 7)	Processing and presentation of the epitope by various target cells (CTL clone RDR173 [2]; EBV-LCL, PHA blast and CD14+ cells pulsed 4 h at 37° C., FIG. 8)
RPRAIRPLAL [LB-ECGF-1R, donor-derived peptide variant with Arg instead of His]	not recognized	–	–
RPAGGARTLRPHAIRRPLALRRA [23-mer peptide]	–	efficient recognition	have the ability to process and present the epitope
RPHAIRRPLAL [LB-ECGF-1H]	the epitope recognized by CTL clone RDR173	–	–

From patent publication US20090004162A1, “Hecgf-1 Related Polymorphisms and Applications Thereof” (priority 2005, published 2009)
